Data: patent US20220194938A1, “NOVEL COMPOUNDS AND PHARMACEUTICAL COMPOSITIONS THEREOF FOR THE TREATMENT OF INFLAMMATORY DISORDERS” (GALAPAGOS NV, priority 2019, published 2022)

What was measured:
[1] = test system: pooled cryopreserved hepatocytes; test: Metabolic stability in hepatocytes (human); type: in vitro ADME; details: 1 μM test compound
How it was run: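 Test compound at 1 μM (0.03% DMSO) incubated with 0.5 million viable pooled cryopreserved hepatocytes/mL at 37° C with shaking; sampled 0–180 min. Parent loss measured by LC-MS/MS versus time-zero, and intrinsic clearance derived from percentage-remaining plots, scaled to L/h/kg and corrected for hepatocyte binding.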

human IRAK-4 = target: T1, human IRAK-4 (Homo sapiens, UniProt Q9NWZ3); test: Phosphorylation IC50 determination for human IRAK-4 (ADP-Glo kinase assay); details: human IRAK-4, RIP140 substrate, Km ATP; read-out: IRAK4 ADPglo biochemical assay IC50
T1 construct: purchased Carna Biosciences 09 145
T1 sequence (Q9NWZ3 1-460): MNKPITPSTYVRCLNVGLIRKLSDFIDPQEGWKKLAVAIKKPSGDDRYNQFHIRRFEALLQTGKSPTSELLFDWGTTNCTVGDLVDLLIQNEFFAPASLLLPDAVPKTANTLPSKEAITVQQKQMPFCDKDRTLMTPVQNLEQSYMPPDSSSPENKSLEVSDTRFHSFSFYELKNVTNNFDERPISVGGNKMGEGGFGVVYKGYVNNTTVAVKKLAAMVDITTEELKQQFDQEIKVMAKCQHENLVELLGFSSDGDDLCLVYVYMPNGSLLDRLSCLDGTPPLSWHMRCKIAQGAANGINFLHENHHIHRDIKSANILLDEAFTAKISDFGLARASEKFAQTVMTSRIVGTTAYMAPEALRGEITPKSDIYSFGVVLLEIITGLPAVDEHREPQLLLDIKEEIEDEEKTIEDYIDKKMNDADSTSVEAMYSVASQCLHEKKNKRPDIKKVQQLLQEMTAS
How it was run: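 IRAK-4 phosphorylation of RIP140 at Km ATP in Tris pH 7.5 buffer with Triton X-100, EGTA, MgCl2, DTT and MnCl2, 120 min at room temperature. ADP formed was measured by ADP-Glo luminescence. Ten-point, 5-fold dilutions (highest final 20 μM, automated format; 1% DMSO), normalised to staurosporine (100%) and DMSO (0%) controls.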

Row | Human (Perc. remaining at 90 min) [1] | IC50 (human IRAK-4) | Structure (SMILES)
1 | 95.3% | 0.1 to 5 nM | COc1cc2nc(CCS(C)(=O)=O)cn2cc1NC(=O)c1cccn(C2CC2)c1=O [Compound 25, 1-cyclopropyl-N-[7-methoxy-2-(2-methylsulfonylethyl)imidazo[1,2-a]pyridin-6-yl]-2-oxo-pyridine-3-carboxamide]
2 | 94.9% | 0.1 to 5 nM | CC(C)(O)CCc1cn2cc(NC(=O)c3cccc(C(F)(F)F)n3)c(C(N)=O)cc2n1 [Compound 31, 2-(3-hydroxy-3-methyl-butyl)-6-[[6-(trifluoromethyl)pyridine-2-carbonyl]amino]imidazo[1,2-a]pyridine-7-carboxamide]
3 | 64.9% | 10 to 50 nM | COCCc1cn2cc(NC(=O)c3cccc(C(F)(F)F)n3)c(OC)cc2n1 [Compound 35, N-[7-methoxy-2-(2-methoxyethyl)imidazo[1,2-a]pyridin-6-yl]-6-(trifluoromethyl)pyridine-2-carboxamide]
4 | 99.7% | 0.1 to 5 nM | CCOc1c(NC(=O)c2cccn(C3CC3)c2=O)cn2cc(CCC(C)(C)O)nc2c1F [Compound 37, 1-cyclopropyl-N-[7-ethoxy-8-fluoro-2-(3-hydroxy-3-methyl-butyl)imidazo[1,2-a]pyridin-6-yl]-2-oxo-pyridine-3-carboxamide]
5 | 96.75% | 0.1 to 5 nM | COc1c(NC(=O)c2cccn(C3CC3)c2=O)cn2cc(CCC(C)(C)O)nc2c1F [Compound 42, 1-cyclopropyl-N-[8-fluoro-2-(3-hydroxy-3-methyl-butyl)-7-methoxy-imidazo[1,2-a]pyridin-6-yl]-2-oxo-pyridine-3-carboxamide]
6 | 100.95% | 0.1 to 5 nM | CC(C)(O)CCc1cn2cc(NC(=O)c3cccc(C(F)(F)F)n3)c(C(=O)NCC(F)F)cc2n1 [Compound 48, N-(2,2-difluoroethyl)-2-(3-hydroxy-3-methylbutyl)-6-(6-(trifluoromethyl)picolinamido)imidazo[1,2-a]pyridine-7-carboxamide]
7 | 95.9% | 0.1 to 5 nM | CCNC(=O)c1cc2nc(CCC(C)(C)O)cn2cc1NC(=O)c1cccc(C(F)(F)F)n1 [Compound 49, N-ethyl-2-(3-hydroxy-3-methylbutyl)-6-(6-(trifluoromethyl)picolinamido)imidazo[1,2-a]pyridine-7-carboxamide]
